Results taken from patent publication US11596631B2, “CDK12 inhibitors and their uses” (The University of Nottingham, priority 2016, dated 2023).

Legend:
[1] = tested on: nuclear foci in DM1 fibroblasts; experiment: nuclear foci assay (in situ hybridisation with Cy3 CAG10 probe, high content imaging); format: cell-based; settings: for activity in the nuclear foci assay (nuclear foci relative to DMSO treated cells): DM1 fibroblasts, 24 hours, dilution series; for reduction in foci on exposure for different lengths of time: 2 hours to 48 hours
Experimental: Using a previously reported assay the PKIS collection was screened for compounds that reduce nuclear foci and the compounds were then analysed for their known selectivity profiles to identify the common kinase targets (Ketley, A. et al. (2014). Hum Mol Genet, 23: 1551-1562). […] Following treatment, fluorescent in situ hybridisation was performed with a cy3 labelled CAG10 probe, to visualize nuclear foci and cells were analysed on a Molecular Devices plate reader with customised MetaExpress software (Ketley, A. et al. (2014). Hum Mol Genet, 23: 1551-1562). Compounds that reduced nuclear foci in a concentration dependent manner, compared to DMSO treated cells were identified and prioritized for further study.
[…] Plates were analysed on a Molecular Devices Micro High Content Imaging system, with nine fields imaged per well to give approximately 100 cells per well, per compound treatment. The nuclear area was identified by Hoechst stain and the number, size and intensity of foci was determined by scoring adjacent pixels that were 80 grayscales or more above background.

CDK9 = CDK9 (Homo sapiens, UniProt P50750); settings: previously reported IC50 values (FIG. 13); cited from earlier work
CDK9, sequence (P50750 whole entry): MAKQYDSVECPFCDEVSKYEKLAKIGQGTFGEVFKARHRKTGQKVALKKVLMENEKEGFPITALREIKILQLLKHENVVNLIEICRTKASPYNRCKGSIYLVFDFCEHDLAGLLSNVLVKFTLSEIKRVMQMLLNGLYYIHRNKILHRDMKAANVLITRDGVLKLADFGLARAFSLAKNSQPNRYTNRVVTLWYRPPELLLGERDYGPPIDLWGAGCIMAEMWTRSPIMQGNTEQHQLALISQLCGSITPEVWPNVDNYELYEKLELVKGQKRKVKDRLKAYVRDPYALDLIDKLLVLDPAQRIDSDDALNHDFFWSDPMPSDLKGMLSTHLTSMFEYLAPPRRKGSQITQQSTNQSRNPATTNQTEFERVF
CDK9, sequence (O60563 whole entry partner): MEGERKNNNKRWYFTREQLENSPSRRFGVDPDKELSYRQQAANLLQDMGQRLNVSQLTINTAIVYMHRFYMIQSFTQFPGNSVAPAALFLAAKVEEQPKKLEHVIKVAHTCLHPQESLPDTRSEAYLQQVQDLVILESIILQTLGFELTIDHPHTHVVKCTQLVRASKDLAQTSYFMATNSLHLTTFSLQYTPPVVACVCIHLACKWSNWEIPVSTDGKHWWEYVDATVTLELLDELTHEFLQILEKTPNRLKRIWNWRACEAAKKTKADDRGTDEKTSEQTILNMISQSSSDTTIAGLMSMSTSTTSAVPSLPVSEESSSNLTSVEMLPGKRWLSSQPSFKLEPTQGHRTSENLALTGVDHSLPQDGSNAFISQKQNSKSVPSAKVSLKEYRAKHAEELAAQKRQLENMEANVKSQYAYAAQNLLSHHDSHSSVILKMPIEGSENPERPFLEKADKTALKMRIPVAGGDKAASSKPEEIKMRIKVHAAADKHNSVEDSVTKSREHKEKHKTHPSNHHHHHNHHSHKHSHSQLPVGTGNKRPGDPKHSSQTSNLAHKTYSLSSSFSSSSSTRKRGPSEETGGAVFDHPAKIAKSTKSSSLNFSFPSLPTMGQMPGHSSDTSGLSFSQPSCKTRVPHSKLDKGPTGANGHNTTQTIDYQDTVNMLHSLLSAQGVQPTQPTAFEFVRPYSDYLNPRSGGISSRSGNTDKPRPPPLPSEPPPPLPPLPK

HSALR mice = experiment: inhibitor treatment in DM1 mouse model; format: in vivo; settings: compared to vehicle control animals
Experimental: FIG. 7: Inhibitor treatment in a DM1 mouse model (A) Combined myotonia grade scores in quadriceps, gastrocnemius and paraspinal muscles from HSALR mice following vehicle and dinaciclib compound treatment (n=6 per treatment group) (B) Myotonia grades by muscle type in dinaciclib and vehicle treated HSALR mice.
To establish the in vivo effect of this inhibitor HSA^LR mice were treated by intraperitoneal injection for a 28 day treatment period comprising 12 injections in total.

CDK12 = molecular target: T1, CDK12 (Homo sapiens, UniProt Q9NYV4); experiment: chemoproteomics dose-response competition binding with SNS-032 affinity matrix; settings: K562 or A204 cell extract, SNS-032 beads
T1 construct: endogenous in cells; host or cells: K562 or A204 cell extract
T1 sequence (Q9NYV4 whole entry): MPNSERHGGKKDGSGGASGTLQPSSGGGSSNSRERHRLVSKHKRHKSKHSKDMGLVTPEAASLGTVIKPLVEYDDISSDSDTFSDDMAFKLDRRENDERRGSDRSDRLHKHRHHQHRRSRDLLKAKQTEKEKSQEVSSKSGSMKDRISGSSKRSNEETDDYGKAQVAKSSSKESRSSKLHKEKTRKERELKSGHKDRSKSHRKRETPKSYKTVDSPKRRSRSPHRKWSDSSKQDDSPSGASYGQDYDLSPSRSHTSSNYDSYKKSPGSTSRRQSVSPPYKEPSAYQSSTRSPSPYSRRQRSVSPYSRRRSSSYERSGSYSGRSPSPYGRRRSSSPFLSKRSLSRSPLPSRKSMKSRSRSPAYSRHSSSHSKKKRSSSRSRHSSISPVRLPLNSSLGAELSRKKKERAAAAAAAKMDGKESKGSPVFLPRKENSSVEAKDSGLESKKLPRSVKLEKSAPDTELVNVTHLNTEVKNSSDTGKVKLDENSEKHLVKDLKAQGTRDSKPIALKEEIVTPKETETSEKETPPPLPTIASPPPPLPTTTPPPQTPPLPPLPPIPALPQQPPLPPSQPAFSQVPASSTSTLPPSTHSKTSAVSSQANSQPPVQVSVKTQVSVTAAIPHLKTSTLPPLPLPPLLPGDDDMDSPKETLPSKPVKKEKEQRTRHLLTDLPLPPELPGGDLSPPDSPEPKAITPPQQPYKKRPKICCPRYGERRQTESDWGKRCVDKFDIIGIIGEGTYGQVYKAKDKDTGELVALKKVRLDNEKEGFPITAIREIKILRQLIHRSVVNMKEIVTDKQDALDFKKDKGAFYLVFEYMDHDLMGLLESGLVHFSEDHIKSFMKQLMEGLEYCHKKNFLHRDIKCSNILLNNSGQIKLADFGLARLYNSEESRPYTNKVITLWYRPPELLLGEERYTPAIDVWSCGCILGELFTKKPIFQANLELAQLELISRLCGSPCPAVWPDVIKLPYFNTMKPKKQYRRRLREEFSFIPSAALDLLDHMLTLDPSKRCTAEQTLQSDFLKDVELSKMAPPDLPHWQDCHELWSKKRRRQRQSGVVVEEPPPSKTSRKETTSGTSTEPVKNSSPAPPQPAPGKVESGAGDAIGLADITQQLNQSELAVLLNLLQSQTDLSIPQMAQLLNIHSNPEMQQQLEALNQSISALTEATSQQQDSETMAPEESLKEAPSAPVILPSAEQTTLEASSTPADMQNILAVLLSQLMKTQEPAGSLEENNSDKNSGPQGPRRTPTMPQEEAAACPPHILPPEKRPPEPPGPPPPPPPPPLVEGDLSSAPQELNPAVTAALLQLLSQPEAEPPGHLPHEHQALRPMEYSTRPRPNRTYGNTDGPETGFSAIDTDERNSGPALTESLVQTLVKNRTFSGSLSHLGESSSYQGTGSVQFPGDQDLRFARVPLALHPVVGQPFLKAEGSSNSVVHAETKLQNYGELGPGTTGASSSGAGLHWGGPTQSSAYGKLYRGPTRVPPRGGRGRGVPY
T1 sequence (O75909 whole entry partner): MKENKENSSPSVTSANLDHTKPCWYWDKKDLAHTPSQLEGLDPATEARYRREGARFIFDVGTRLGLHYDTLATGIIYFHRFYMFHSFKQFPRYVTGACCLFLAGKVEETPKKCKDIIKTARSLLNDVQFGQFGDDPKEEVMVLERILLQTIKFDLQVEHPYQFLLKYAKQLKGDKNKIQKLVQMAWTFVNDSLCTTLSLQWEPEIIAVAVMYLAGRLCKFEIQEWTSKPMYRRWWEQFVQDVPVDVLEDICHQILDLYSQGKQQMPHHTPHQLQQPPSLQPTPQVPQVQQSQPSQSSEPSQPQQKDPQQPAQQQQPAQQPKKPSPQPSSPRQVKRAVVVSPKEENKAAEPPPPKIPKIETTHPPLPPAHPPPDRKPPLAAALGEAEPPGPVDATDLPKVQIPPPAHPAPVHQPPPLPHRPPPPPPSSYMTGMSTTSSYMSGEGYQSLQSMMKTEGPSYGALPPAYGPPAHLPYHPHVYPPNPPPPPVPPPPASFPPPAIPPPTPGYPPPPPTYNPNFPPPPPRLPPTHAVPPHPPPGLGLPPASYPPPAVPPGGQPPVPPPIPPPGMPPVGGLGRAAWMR
Text: FIG. 4: Chemoproteomics target deconvolution. IC50 values were generated by affinity capturing of kinases from K562 or A204 cell extract using beads derivatized with SNS-032, in the presence of different concentrations of free competing compound or vehicle (DMSO). pIC50 values are plotted against the pIC50 in the foci inhibition assay for each compound. A good correlation of kinase binding affinity with the inhibitory activity on foci is observed for CDKS, CDK7, CDK9, and CDK12. r: Pearson correlation coefficient; p: p-value (calculated probability).
To determine the specific CDKs responsible for the reduction of nuclear foci it was sought to expand the target coverage within the CDK family by the immobilization of two of the active compounds containing a suitable secondary amine; SNS-032 and AT7519 (FIG. 10). […] To confirm that the K562, A204 and DM1 cell lines express the same kinases a whole proteome analysis was conducted. All CDK/PCTK proteins identified by profiling were also identified in the cells used for the phenotypic foci assay as follows: […]
Affinity profiling was performed as described previously (Bantscheff, M. et al. (2007). Nat Biotechnol, 25: 1035-1044 and Bantscheff, M. et al. (2011). Nat Biotechnol, 29: 255-265). […] Proteins were alkylated, separated on 4-12% NuPAGE (Invitrogen), stained with colloidal Coomassie, and quantified by isobaric mass tagging and LC-MS/MS.

[2] = tested on: mutant DMPK transcripts in DM1 fibroblast cells; experiment: RT-PCR / BpmI assay for repeat expansion transcripts; format: cell-based
Experimental: (A) Ethidium bromide stained gel showing RT-PCR products from nuclear (N) and cytoplasmic (C) RNA fractions following amplification and BpmI digest of a fragment of DMPK. GAPDH is used as a loading control. […] (D) DM1 cells treated with SNS-032 for 2 hours.
Reverse transcription was performed using 1 μg total RNA from compound-treated and untreated cells. […] For Genescan analysis primer N11 was labelled with FAM. Amplification was performed with a Tm of 58° C. The PCR product was subsequently heated to 95° C. for 2 minutes followed by cooling to 4° C. For Bpml restriction digestion analysis of DMPK PCR products, 8 μl of PCR mixture was digested overnight with restriction enzyme Bpml (NEB) in a total reaction volume of 20 μl at 37° C. The final products were analysed by electrophoresis at 90V with 3% agarose gels and the density of bands quantified using ImageJ software or by fragment analysis on an AB1377 sequencer followed by Genescan quantification.

[3] = DM1 cells, 2 hours treatment, no recovery time

SMILES: O=C(NC1CCNCC1)c1[nH]ncc1NC(=O)c1c(Cl)cccc1Cl [AT-7519]
- activity in the nuclear foci assay (nuclear foci relative to DMSO treated cells) [1]: high activity
- potency against CDK9 (CDK9): highest potency

SMILES: CC(C)(C)c1cnc(CSc2cnc(NC(=O)C3CCNCC3)s2)o1 [SNS-032]
- cells without nuclear foci ([1]; DM1 cells, 2 hours treatment, 48 hours recovery): 14%
- cells without nuclear foci ([1]; DM1 cells, 2 hours treatment, 72 hours recovery): 36%
- cells with more than 5 foci [1, 3]: 28%
- cells with no foci [1, 3]: 10%
- treatment time after which foci reduction was effective ([1]; DM1 fibroblast cells): 2 h
- reduction in foci on exposure for different lengths of time ([1]; DM1 fibroblast cells): significant reduction in foci
- activity in the nuclear foci assay (nuclear foci relative to DMSO treated cells) [1]: high activity
- potency against CDK9 (CDK9): highest potency

SMILES: CCc1cnn2c(NCc3ccc[n+]([O-])c3)cc(N3CCCC[C@H]3CCO)nc12 [dinaciclib]
- centralised nuclei in muscle fibres (laminin stain) (HSALR mice): reduction in centralised nuclei
- reduction in foci on exposure for different lengths of time ([1]; DM1 fibroblast cells): significant reduction in foci
- activity in the nuclear foci assay (nuclear foci relative to DMSO treated cells) [1]: significantly increased activity
- activity against the CDK family, in particular CDK12 (CDK12): most active inhibitor
- location of repeat expansion transcripts after treatment (nuclear and cytoplasmic extracts) [2]: still retained within the nuclear fraction
- decrease in the relative proportion of repeat expansion transcripts compared to wild type transcripts in the nucleus ([2]; 1 μM, 24 hours, Genescan): 59%
